Experimental data: patent US5665704A, “Receptor specific atrial natriuretic peptides” (Genentech, Inc., priority 1995, dated 1997)
Read-outs that look alike come from different tables or passages of the source. Bridge positions count the residues as written; N and C are the ends. Square brackets hold non-standard residues; d marks the D form. Peptide text beside a SMILES is read from it. hCys = N[C@@H](CCS)C(=O)O

How the values were obtained:
hNPR-C = biological target: T1, hNPR-C (Homo sapiens, UniProt P17342); test: Binding affinity for clearance receptor hNPR-C
T1 sequence (P17342 27-541): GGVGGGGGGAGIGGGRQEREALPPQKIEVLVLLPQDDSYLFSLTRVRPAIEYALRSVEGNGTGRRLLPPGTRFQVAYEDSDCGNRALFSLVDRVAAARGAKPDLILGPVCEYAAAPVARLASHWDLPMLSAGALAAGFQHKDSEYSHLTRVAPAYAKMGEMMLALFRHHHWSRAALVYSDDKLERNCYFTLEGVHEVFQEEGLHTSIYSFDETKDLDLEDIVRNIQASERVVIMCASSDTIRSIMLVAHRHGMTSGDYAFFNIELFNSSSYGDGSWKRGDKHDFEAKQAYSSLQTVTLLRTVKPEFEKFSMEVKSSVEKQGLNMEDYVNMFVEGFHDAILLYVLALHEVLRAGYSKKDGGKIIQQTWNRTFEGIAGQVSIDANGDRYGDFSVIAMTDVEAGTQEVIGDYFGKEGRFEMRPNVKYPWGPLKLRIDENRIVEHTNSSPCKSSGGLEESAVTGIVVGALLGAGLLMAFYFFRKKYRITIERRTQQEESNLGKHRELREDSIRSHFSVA
Text: For assay systems to measure binding of hANF and the compounds of this invention to hNPR-C see: Schank, D. B., et al., Biochem. Biophys. Res. Comm. 127:433-442 (1985); Scarborough, R. M., J. Biol. Chem. 261:12960-12964 and WO 90/01940.

hNPR-A = biological target: T2, hNPR-A (Homo sapiens, UniProt P16066); test: Binding affinity for hNPR-A (competitive displacement of I^125 labeled wild-type ANF); details: Table I; read-out: Binding Affinity IC50 (pM) hNPR-A
T2 sequence (P16066 33-1061): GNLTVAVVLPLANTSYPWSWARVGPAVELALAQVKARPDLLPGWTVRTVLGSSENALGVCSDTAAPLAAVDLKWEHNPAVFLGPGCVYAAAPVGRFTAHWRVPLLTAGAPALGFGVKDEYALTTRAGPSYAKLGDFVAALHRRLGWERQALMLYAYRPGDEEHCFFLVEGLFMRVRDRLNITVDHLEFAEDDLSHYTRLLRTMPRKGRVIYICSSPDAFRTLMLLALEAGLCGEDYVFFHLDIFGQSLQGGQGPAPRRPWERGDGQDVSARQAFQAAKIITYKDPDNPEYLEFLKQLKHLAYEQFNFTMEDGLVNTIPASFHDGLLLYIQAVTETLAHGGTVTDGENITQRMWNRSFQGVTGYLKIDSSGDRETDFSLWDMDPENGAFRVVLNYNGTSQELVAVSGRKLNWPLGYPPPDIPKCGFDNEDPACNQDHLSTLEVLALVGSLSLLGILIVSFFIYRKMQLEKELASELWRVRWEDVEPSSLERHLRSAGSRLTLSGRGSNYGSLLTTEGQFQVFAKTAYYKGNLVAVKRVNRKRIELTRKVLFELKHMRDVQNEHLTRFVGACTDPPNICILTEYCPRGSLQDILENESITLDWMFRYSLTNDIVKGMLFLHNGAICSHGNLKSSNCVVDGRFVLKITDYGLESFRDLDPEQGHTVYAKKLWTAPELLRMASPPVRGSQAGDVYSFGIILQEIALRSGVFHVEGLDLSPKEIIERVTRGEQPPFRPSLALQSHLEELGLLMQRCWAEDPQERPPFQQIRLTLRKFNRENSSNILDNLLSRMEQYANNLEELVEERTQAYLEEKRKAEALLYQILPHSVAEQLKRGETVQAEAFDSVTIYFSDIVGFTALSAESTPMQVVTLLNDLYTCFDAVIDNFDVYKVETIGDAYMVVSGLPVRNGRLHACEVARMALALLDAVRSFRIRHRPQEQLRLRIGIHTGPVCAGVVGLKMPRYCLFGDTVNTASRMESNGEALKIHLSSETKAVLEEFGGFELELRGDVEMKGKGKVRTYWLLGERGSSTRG

[1] = Table I, read-out: Binding Affinity IC50 (pM) hNPR-C

Row | Compound | IC50 (hNPR-C; [1]) [pM] | IC50 (hNPR-A) [pM] | IC50 (hNPR-C) [pM]
1 | CC[C@H](C)[C@@H]1NC(=O)[C@H](CCCNC(=N)N)NC(=O)[C@H](CC(=O)O)NC(=O)[C@H]([C@@H](C)CC)NC(=O)[C@H](CCCNC(=N)N)NC(=O)CNC(=O)CNC(=O)[C@H](Cc2ccccc2)NC(=O)[C@@H](NC(=O)[C@H](CO)NC(=O)[C@H](CO)NC(=O)[C@H](CCCNC(=N)N)NC(=O)[C@H](CCCNC(=N)N)NC(=O)[C@H](CC(C)C)NC(=O)[C@@H](N)CO)CSSC[C@@H](C(=O)N[C@@H](CC(N)=O)C(=O)N[C@@H](CO)C(=O)N[C@@H](Cc2ccccc2)C(=O)N[C@@H](CCCNC(=N)N)C(=O)N[C@@H](Cc2ccc(O)cc2)C(=O)O)NC(=O)CNC(=O)[C@H](CC(C)C)NC(=O)CNC(=O)[C@H](CO)NC(=O)[C@H](CCC(N)=O)NC(=O)[C@H](C)NC(=O)[C@H](CCCNC(=N)N)NC1=O [ANF24] | 5640 | – | –
2 | CC[C@H](C)[C@@H]1NC(=O)[C@H](CO)NC(=O)[C@H](CC(=O)O)NC(=O)[C@H]([C@@H](C)CC)NC(=O)[C@H](CCCNC(=N)N)NC(=O)CNC(=O)CNC(=O)[C@H](Cc2ccccc2)NC(=O)[C@@H](NC(=O)[C@H](CO)NC(=O)[C@H](CO)NC(=O)[C@H](CCCNC(=N)N)NC(=O)[C@H](CCCNC(=N)N)NC(=O)[C@H](CC(C)C)NC(=O)[C@@H](N)CO)CSSC[C@@H](C(=O)N[C@@H](CC(N)=O)C(=O)N[C@@H](CO)C(=O)N[C@@H](Cc2ccccc2)C(=O)N[C@@H](CCCNC(=N)N)C(=O)N[C@@H](Cc2ccc(O)cc2)C(=O)O)NC(=O)CNC(=O)[C@H](CC(C)C)NC(=O)CNC(=O)[C@H](CO)NC(=O)[C@H](CCC(N)=O)NC(=O)[C@H](C)NC(=O)[C@H](CCCNC(=N)N)NC1=O [ANF25] (H-SLRRSSCFGGRIDSIRAQSGLGCNSFRY-OH; disulfide 7-23) | 3310 | 56 | –
3 | CC[C@H](C)[C@@H]1NC(=O)[C@H](CCCNC(=N)N)NC(=O)[C@H](CC(=O)O)NC(=O)[C@H]([C@@H](C)CC)NC(=O)[C@H](CO)NC(=O)CNC(=O)[C@H]([C@@H](C)O)NC(=O)[C@H](Cc2ccccc2)NC(=O)[C@@H](NC(=O)[C@H](CO)NC(=O)[C@H](CO)NC(=O)[C@H](CCCNC(=N)N)NC(=O)[C@H](CCCNC(=N)N)NC(=O)[C@H](CC(C)C)NC(=O)[C@@H](N)CO)CSSC[C@@H](C(=O)N[C@@H](CC(N)=O)C(=O)N[C@@H](CO)C(=O)N[C@@H](Cc2ccccc2)C(=O)N[C@@H](CCCNC(=N)N)C(=O)N[C@@H](Cc2ccc(O)cc2)C(=O)O)NC(=O)CNC(=O)[C@H](CC(C)C)NC(=O)CNC(=O)[C@H](CO)NC(=O)[C@H](CCC(N)=O)NC(=O)[C@H](C)NC(=O)[C@H](CCCNC(=N)N)NC1=O [ANF27] | 1e+06 | – | –
4 | CC[C@H](C)[C@@H]1NC(=O)[C@H](CCCNC(=N)N)NC(=O)[C@H](CC(=O)O)NC(=O)[C@H]([C@@H](C)CC)NC(=O)[C@H](CO)NC(=O)CNC(=O)[C@H]([C@@H](C)O)NC(=O)[C@H](Cc2ccccc2)NC(=O)[C@@H](NC(=O)[C@H](CO)NC(=O)[C@H](CO)NC(=O)[C@H](CCCNC(=N)N)NC(=O)[C@H](CCCNC(=N)N)NC(=O)[C@H](CC(C)C)NC(=O)[C@@H](N)CO)CSSC[C@@H](C(=O)N[C@@H](CC(N)=O)C(=O)N[C@@H](CO)C(=O)N[C@@H](Cc2ccccc2)C(=O)N[C@@H](CCCNC(=N)N)C(=O)N[C@@H](Cc2ccc(O)cc2)C(=O)O)NC(=O)CNC(=O)[C@H](CC(C)C)NC(=O)CNC(=O)[C@H](CO)NC(=O)[C@@H]2CCCN2C(=O)[C@H](C)NC(=O)[C@H](CCCNC(=N)N)NC1=O [ANF31] (H-SLRRSSCFTGSIDRIRAPSGLGCNSFRY-OH; disulfide 7-23) | 3.21e+06 | 52 | –
5 | CC[C@H](C)[C@@H]1NC(=O)[C@H](CCCNC(=N)N)NC(=O)[C@H](CC(=O)O)NC(=O)[C@H]([C@@H](C)CC)NC(=O)[C@H](CO)NC(=O)CNC(=O)[C@@H](C)NC(=O)[C@H](Cc2ccccc2)NC(=O)[C@@H](NC(=O)[C@H](CO)NC(=O)[C@H](CO)NC(=O)[C@H](CCCNC(=N)N)NC(=O)[C@H](CCCNC(=N)N)NC(=O)[C@H](CC(C)C)NC(=O)[C@@H](N)CO)CSSC[C@@H](C(=O)N[C@@H](CC(N)=O)C(=O)N[C@@H](CO)C(=O)N[C@@H](Cc2ccccc2)C(=O)N[C@@H](CCCNC(=N)N)C(=O)N[C@@H](Cc2ccc(O)cc2)C(=O)O)NC(=O)CNC(=O)[C@H](CC(C)C)NC(=O)CNC(=O)[C@H](CO)NC(=O)[C@H](CCC(N)=O)NC(=O)[C@H](C)NC(=O)[C@H](CCCNC(=N)N)NC1=O [ANF78] | – | – | 8640

The next lines start with results.

Row | IC50 (hNPR-C; [1]) [pM] | IC50 (hNPR-A) [pM] | Compound | IC50 (hNPR-C) [pM]
6 | 251000 | 570 | CC[C@H](C)[C@@H]1NC(=O)[C@H](CCCNC(=N)N)NC(=O)[C@H](CC(=O)O)NC(=O)[C@H](CCSC)NC(=O)[C@H](CO)NC(=O)CNC(=O)[C@H]([C@@H](C)O)NC(=O)[C@H](Cc2ccccc2)NC(=O)[C@@H](NC(=O)[C@H](CO)NC(=O)[C@H](CO)NC(=O)[C@H](CCCNC(=N)N)NC(=O)[C@H](CCCNC(=N)N)NC(=O)[C@H](CC(C)C)NC(=O)[C@@H](N)CO)CSSC[C@@H](C(=O)N[C@@H](CC(N)=O)C(=O)N[C@@H](CO)C(=O)N[C@@H](Cc2ccccc2)C(=O)N[C@@H](CCCNC(=N)N)C(=O)N[C@@H](Cc2ccc(O)cc2)C(=O)O)NC(=O)CNC(=O)[C@H](CC(C)C)NC(=O)CNC(=O)[C@H](CO)NC(=O)[C@H](CCC(N)=O)NC(=O)[C@H](C)NC(=O)CNC1=O [ANF50] (H-SLRRSSCFTGSMDRIGAQSGLGCNSFRY-OH; disulfide 7-23) | –
7 | 32200 | 4550 | CC[C@H](C)[C@@H]1NC(=O)[C@H](CCCNC(=N)N)NC(=O)[C@H](CC(=O)O)NC(=O)[C@H](CCSC)NC(=O)[C@@H]2CCCN2C(=O)[C@H](CCCNC(=N)N)NC(=O)[C@H](CCC(=O)O)NC(=O)[C@H](Cc2ccccc2)NC(=O)[C@@H](NC(=O)[C@H](CO)NC(=O)[C@H](CO)NC(=O)[C@H](CCCNC(=N)N)NC(=O)[C@H](CCCNC(=N)N)NC(=O)[C@H](CC(C)C)NC(=O)[C@@H](N)CO)CSSC[C@@H](C(=O)N[C@@H](CC(N)=O)C(=O)N[C@@H](CO)C(=O)N[C@@H](Cc2ccccc2)C(=O)N[C@@H](CCCNC(=N)N)C(=O)N[C@@H](Cc2ccc(O)cc2)C(=O)O)NC(=O)CNC(=O)[C@H](CC(C)C)NC(=O)CNC(=O)[C@H](CO)NC(=O)[C@H](CCC(N)=O)NC(=O)[C@H](C)NC(=O)CNC1=O [ANF51] (H-SLRRSSCFERPMDRIGAQSGLGCNSFRY-OH; disulfide 7-23) | –
8 | – | 3300 | CC[C@H](C)[C@@H]1NC(=O)[C@H](CO)NC(=O)[C@H](CC(=O)O)NC(=O)[C@H](CC(C)C)NC(=O)[C@H](CO)NC(=O)CNC(=O)[C@H]([C@@H](C)O)NC(=O)[C@H](Cc2ccccc2)NC(=O)[C@@H](NC(=O)[C@H](CO)NC(=O)[C@H](CO)NC(=O)[C@H](CCCNC(=N)N)NC(=O)[C@H](CC(=O)O)NC(=O)[C@H](CC(C)C)NC(=O)[C@@H](N)CO)CSSC[C@@H]2NC(=O)CNC(=O)[C@H](CC(C)C)NC(=O)CNC(=O)[C@H](CO)NC(=O)[C@H](CCSSCC[C@@H](C(=O)O)NC(=O)[C@H](CCCNC(=N)N)NC(=O)[C@H](Cc3ccccc3)NC(=O)[C@H](CO)NC(=O)[C@H](CC(N)=O)NC2=O)NC(=O)[C@H](C)NC(=O)[C@H](CCCNC(=N)N)NC1=O [ANF70] (H-SLDRSSCFTGSLDSIRA[hCys]SGLGCNSFR[hCys]-OH; disulfide 7-23, 18-28) | –
